Consider 1 compound from publication doi:10.1101/171595v1 (biorxiv, 2017).

This assay concerns HpaM. The following applies: read-out: apparent Km; 50 mM PBS pH 7.0, 0.2 mM FAD, 5HPA as co-substrate, 25°C.

Take `NC(=O)C1=CN([C@@H]2O[C@H](COP(=O)(O)OP(=O)(O)OC[C@H]3O[C@@H](n4cnc5c(N)ncnc54)[C@H](O)[C@@H]3O)[C@@H](O)[C@H]2O)C=CC1` [NADH]: the Km turned out to be 37.8 ± 3.4 µM.
